# Source: patent publication US20240246967A1, “AXL COMPOUNDS” (ARCUS BIOSCIENCES, INC., priority 2021, published 2024)
# Key:
# human MER = molecular target: T1, human MER (Homo sapiens, UniProt Q12866); experiment: HTRF KinEASE-TK biochemical potency assay, MER; settings: 1 nM MER, 700 μM ATP, 800 nM TK Substrate-biotin
# T1 construct: purchased Invitrogen
# T1 sequence (Q12866 21-999): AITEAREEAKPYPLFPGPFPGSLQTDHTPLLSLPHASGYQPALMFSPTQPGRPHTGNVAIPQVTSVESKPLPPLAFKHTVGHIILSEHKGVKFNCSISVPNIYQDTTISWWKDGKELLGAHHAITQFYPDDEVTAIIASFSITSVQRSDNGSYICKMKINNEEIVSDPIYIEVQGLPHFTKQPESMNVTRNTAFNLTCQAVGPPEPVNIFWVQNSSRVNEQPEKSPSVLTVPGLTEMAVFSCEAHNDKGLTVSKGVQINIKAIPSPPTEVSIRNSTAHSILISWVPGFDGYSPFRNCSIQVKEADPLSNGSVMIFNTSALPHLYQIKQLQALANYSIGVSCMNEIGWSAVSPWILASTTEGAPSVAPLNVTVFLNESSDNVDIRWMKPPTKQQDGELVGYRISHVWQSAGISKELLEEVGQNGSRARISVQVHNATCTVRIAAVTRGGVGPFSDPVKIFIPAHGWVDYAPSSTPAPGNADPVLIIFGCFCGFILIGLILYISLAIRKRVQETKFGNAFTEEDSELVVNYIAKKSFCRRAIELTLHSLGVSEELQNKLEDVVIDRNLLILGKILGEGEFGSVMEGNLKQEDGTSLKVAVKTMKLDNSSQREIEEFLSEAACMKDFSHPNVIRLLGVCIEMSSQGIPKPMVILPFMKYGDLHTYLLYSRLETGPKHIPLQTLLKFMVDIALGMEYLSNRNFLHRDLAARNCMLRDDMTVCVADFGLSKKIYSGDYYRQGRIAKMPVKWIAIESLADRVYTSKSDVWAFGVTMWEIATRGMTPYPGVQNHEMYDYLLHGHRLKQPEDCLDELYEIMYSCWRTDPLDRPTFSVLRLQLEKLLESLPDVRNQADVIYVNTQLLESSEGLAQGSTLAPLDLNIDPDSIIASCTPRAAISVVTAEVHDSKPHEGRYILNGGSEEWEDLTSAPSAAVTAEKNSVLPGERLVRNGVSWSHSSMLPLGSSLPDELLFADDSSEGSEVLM
# Method: (§1) Purified recombinant human AXL, TYRO3 and MER proteins were purchased from Invitrogen™. 10 nM AXL, 2 nM TYRO3 or MER were incubated with varying concentrations of compounds in 50 mM HEPES, pH 7.4, 10 mM MgCl2, 0.01% BSA, 1 mM DTT and 2% DMSO in a total volume of 20 μl in a 384-well microplate (Corning™ #3640) at RT for 1 h. The AXL, TYRO3 and MER enzymatic reaction was initiated by transferring 10 μl of enzyme and compound mixture into 10 μl of 1.6 μM TK Substrate-biotin (HTRF® KinEASE-TK kit, Cisbio) and 1400 μM ATP pre-incubated in 50 mM HEPES, pH 7.4, 10 mM MgCl2, 0.01% BSA, 1 mM DTT in a 384-well microplate (Corning™ #3640) at RT, giving the final reaction conditions: 5 nM AXL, 1 nM TYRO3 or MER, 800 nM TK Substrate-biotin and 700 μM ATP in 50 mM HEPES, pH 7.4, 10 mM MgCl2, 0.01% BSA, 1 mM DTT and 1% DMSO with varying concentrations of compounds. Following 2 h incubation at RT, the AXL, TYRO3 and MER enzymatic reaction was stopped by transfer of 10 μl of reaction into 10 μl of detection mix (400 nM Streptavidin-XL665, 200-fold dilution TK Antibody-Cryptate and detection buffer, HTRF® KinEASE-TK kit, Cisbio) in a white 384-well microplate (Perkin Elmer, OptiPlate 384). After 1 h incubation at RT, the plate was put into a plate reader (Evision) to read at 665/620 nm (acceptor/donor) for HTRF. The value of the DMSO blank (MIN inhibition=100% activity) was used as a negative control. The positive control was established by adding 5 μl of enzyme and DMSO mixture into 10 μl of detection mix followed by addition of 5 μl of TK Substrate-biotin and ATP mixture (MAX inhibition=0% activity). To calculate the percent activity, Equation 1 was used. Ratio 665/620 is the value at a given compound concentration: […]
# Axl = molecular target: T2, Axl (Homo sapiens, UniProt P30530); experiment: HTRF KinEASE-TK biochemical potency assay, AXL; set-up: purchased Invitrogen; settings: 5 nM AXL, 700 μM ATP, 800 nM TK Substrate-biotin
# T2 sequence (P30530 26-894): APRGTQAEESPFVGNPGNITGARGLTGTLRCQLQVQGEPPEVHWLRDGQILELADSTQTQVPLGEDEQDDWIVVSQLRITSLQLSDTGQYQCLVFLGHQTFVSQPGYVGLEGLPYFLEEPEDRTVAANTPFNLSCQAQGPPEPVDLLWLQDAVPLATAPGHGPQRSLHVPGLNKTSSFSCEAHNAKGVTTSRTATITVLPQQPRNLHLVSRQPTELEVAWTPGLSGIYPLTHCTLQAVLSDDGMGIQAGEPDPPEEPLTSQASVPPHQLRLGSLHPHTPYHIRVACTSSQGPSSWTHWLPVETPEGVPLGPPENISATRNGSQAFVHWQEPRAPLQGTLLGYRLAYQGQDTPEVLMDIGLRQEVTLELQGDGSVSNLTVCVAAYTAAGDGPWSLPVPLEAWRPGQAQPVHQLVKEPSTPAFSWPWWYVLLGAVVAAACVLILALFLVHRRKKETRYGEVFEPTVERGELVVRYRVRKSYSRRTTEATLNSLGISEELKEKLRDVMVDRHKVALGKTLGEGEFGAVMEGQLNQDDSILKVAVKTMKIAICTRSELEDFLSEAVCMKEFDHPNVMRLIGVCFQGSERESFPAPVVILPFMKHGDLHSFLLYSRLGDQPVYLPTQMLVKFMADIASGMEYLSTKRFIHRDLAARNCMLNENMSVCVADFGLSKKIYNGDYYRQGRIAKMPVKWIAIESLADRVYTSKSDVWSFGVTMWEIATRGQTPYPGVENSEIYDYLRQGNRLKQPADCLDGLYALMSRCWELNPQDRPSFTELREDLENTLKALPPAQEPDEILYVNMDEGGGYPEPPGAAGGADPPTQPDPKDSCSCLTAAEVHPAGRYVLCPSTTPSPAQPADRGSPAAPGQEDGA
# Method: as §1
Compound,IC50 (human MER) [nM],IC50 (Axl) [nM]
"C[C@H]1CCCN1C1(C)CCc2ccc(-c3cnc4[nH]nc(-c5ccc(S(=O)(=O)C6CC6)cc5)c4c3)cc2CC1 (stereo partly drawn) [Example 5, (2S)-1-(2-{3-[4-(Cyclopropanesulfonyl)phenyl]-1H-pyrazolo[3,4-b]pyridin-5-yl}-7-methyl-6,7,8,9-tetrahydro-5H-benzo[7]annulen-7-yl)-2-methylpyrrolidine]",100 to 1000,< 100
"CC1(N2CCC2)CCc2ccc(-c3cnc4[nH]nc(-c5ccc(S(=O)(=O)C6CC6)cc5)c4c3)cc2CC1 (stereo not drawn) [Example 7, 1-(2-{3-[4-(Cyclopropanesulfonyl)phenyl]-1H-pyrazolo[3,4-b]pyridin-5-yl}-7-methyl-6,7,8,9-tetrahydro-5H-benzo[7]annulen-7-yl)azetidine]",100 to 1000,< 100
"CC(C)(O)c1ccc(-c2n[nH]c3ncc(-c4ccc5c(c4)CCN(C4CCCC4)CC5)cc23)cn1 [Example 10, 2-{5-[5-(3-Cyclopentyl-2,3,4,5-tetrahydro-1H-3-benzazepin-7-yl)-1H-pyrazolo[3,4-b]pyridin-3-yl]pyridin-2-yl}propan-2-ol]",100 to 1000,< 100
"CC(C)(O)c1ccc(-c2n[nH]c3ncc(-c4ccc5c(c4)CCN(C4CCCC4)CC5)cc23)cc1C(F)(F)F [Example 16, 2-{4-[5-(3-Cyclopentyl-2,3,4,5-tetrahydro-1H-3-benzazepin-7-yl)-1H-pyrazolo[3,4-b]pyridin-3-yl]-2-(trifluoromethyl)phenyl}propan-2-ol]",100 to 1000,< 100
"CC(C)(O)c1ccc(-c2n[nH]c3ncc(-c4ccc5c(c4)CCN(C4CCCC4)CC5)cc23)c(F)c1 [Example 17, 2-{4-[5-(3-Cyclopentyl-2,3,4,5-tetrahydro-1H-3-benzazepin-7-yl)-1H-pyrazolo[3,4-b]pyridin-3-yl]-3-fluorophenyl}propan-2-ol]",> 1000,< 100
"C[C@@H]1CCCN1C1CCc2ccc(-c3cnc4[nH]nc(-c5ccc(C(C)(C)O)c(C(F)(F)F)c5)c4c3)cc2CC1 (stereo partly drawn) [Example 20, 2-[4-(5-{7-[(2R)-2-Methylpyrrolidin-1-yl]-6,7,8,9-tetrahydro-5H-benzo[7]annulen-2-yl}-1H-pyrazolo[3,4-b]pyridin-3-yl)-2-(trifluoromethyl)phenyl]propan-2-ol]",100 to 1000,< 100
"CC(C)(O)c1ccc(-c2n[nH]c3ncc(-c4ccc5c(c4)CCC(N4CCC[C@@H]4CO)CC5)cc23)cc1Cl (stereo partly drawn) [Example 21, 2-[2-Chloro-4-(5-{7-[(2R)-2-(hydroxymethyl)pyrrolidin-1-yl]-6,7,8,9-tetrahydro-5H-benzo[7]annulen-2-yl}-1H-pyrazolo[3,4-b]pyridin-3-yl)phenyl]propan-2-ol]",100 to 1000,< 100

# Second part, the compound after the results:
IC50 (human MER) [nM],IC50 (Axl) [nM],Compound
100 to 1000,< 100,"CC1(N2CCC[C@H]2CO)CCc2ccc(-c3cnc4[nH]nc(-c5ccc(S(=O)(=O)C6CC6)cc5)c4c3)cc2CC1 (stereo partly drawn) [Example 4, [(2S)-1-(2-{3-[4-(Cyclopropanesulfonyl)phenyl]-1H-pyrazolo[3,4-b]pyridin-5-yl}-7-methyl-6,7,8,9-tetrahydro-5H-benzo[7]annulen-7-yl)pyrrolidin-2-yl]methanol]"
> 1000,< 100,"CCC1(N2CCC[C@H]2C)CCc2ccc(-c3cnc4[nH]nc(-c5ccc(S(=O)(=O)C6CC6)cc5)c4c3)cc2CC1 (stereo partly drawn) [Example 6, (2R)-1-(2-{3-[4-(Cyclopropanesulfonyl)phenyl]-1H-pyrazolo[3,4-b]pyridin-5-yl}-7-ethyl-6,7,8,9-tetrahydro-5H-benzo[7]annulen-7-yl)-2-methylpyrrolidine]"
> 1000,< 100,"C[C@@H]1CCCN1C1(C)CCc2ccc(-c3cnc4[nH]nc(-c5ccc(S(=O)(=O)C(F)(F)F)cc5)c4c3)cc2CC1 (stereo partly drawn) [Example 8, (2R)-2-Methyl-1-{7-methyl-2-[3-(4-trifluoromethanesulfonylphenyl)-1H-pyrazolo[3,4-b]pyridin-5-yl]-6,7,8,9-tetrahydro-5H-benzo[7]annulen-7-yl}pyrrolidine]"
100 to 1000,< 100,"CC(C)(O)c1ccc(-c2n[nH]c3ncc(-c4ccc5c(c4)CCC(N4CCCC4)CC5)cc23)cn1 (stereo not drawn) [Example 9, 2-(5-{5-[7-(Pyrrolidin-1-yl)-6,7,8,9-tetrahydro-5H-benzo[7]annulen-2-yl]-1H-pyrazolo[3,4-b]pyridin-3-yl}pyridin-2-yl)propan-2-ol]"
100 to 1000,< 100,"CC(C)(O)c1ccc(-c2n[nH]c3ncc(-c4ccc5c(c4)CCC(N4CCCC4)CC5)cc23)cc1Cl (stereo not drawn) [Example 11, 2-(2-Chloro-4-{5-[7-(pyrrolidin-1-yl)-6,7,8,9-tetrahydro-5H-benzo[7]annulen-2-yl]-1H-pyrazolo[3,4-b]pyridin-3-yl}phenyl)propan-2-ol]"
> 1000,< 100,"CC(C)(O)c1ccc(-c2n[nH]c3ncc(-c4ccc5c(c4)CCN(C4CCCC4)CC5)cc23)cc1Cl [Example 12, 2-{2-Chloro-4-[5-(3-cyclopentyl-2,3,4,5-tetrahydro-1H-3-benzazepin-7-yl)-1H-pyrazolo[3,4-b]pyridin-3-yl]phenyl}propan-2-ol]"
100 to 1000,< 100,"C[C@@H]1CCCN1C1(C)CCc2ccc(-c3cnc4[nH]nc(-c5ccc(C(C)(C)O)nc5)c4c3)cc2CC1 (stereo partly drawn) [Example 22, 2-[5-(5-{7-Methyl-7-[(2R)-2-methylpyrrolidin-1-yl]-6,7,8,9-tetrahydro-5H-benzo[7]annulen-2-yl}-1H-pyrazolo[3,4-b]pyridin-3-yl)pyridin-2-yl]propan-2-ol]"
100 to 1000,< 100,"CS(=O)(=O)N1CCC(c2n[nH]c3ncc(-c4ccc5c(c4)CCC(N4CCCC4)CC5)cc23)CC1 (stereo not drawn) [Example 23, 1-Methanesulfonyl-4-{5-[7-(pyrrolidin-1-yl)-6,7,8,9-tetrahydro-5H-benzo[7]annulen-2-yl]-1H-pyrazolo[3,4-b]pyridin-3-yl}piperidine]"
